Results on 27 compounds are retold here after patent publication US10660877B2 (BRISTOL-MYERS SQUIBB COMPANY, priority 2016, dated 2020).

In assay [1] the target is human TLR7 (Homo sapiens (Human), UniProt Q9NYK1). The experiment in a line: TLR7 inhibition reporter assay (HEK-Blue cells, SEAP reporter, gardiquimod stimulation). The class given is cell-based. The note with it: HEK-Blue cells overexpressing human TLR7, gardiquimod 7.5 μM. In general terms: Reporter assays use an easily measured gene product as a stand-in for the process of interest.

Assay [2] has as its target human TLR8 (Homo sapiens (Human), UniProt Q9NR97). The experiment in a line: TLR8 inhibition reporter assay (HEK-Blue cells, SEAP reporter, R848 stimulation).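 Note: compounds tested from 0.05 nM to 50 µM, 22 h at 37 °C, SEAP measured with HEK-Blue Detection, inhibition relative to agonist plus DMSO versus a known inhibitor.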 The note with it: read-out: TLR8 IC50, HEK-Blue cells overexpressing human TLR8, R848 15.9 μM.
Assay [3] deals with human TLR9 (Homo sapiens (Human), UniProt Q9NR96). Nature of the assay: TLR9 inhibition reporter assay (HEK-Blue cells, SEAP reporter, ODN2006 stimulation).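 Note: compounds tested over 0.05 nM to 50 µM, 22 h incubation, inhibition taken as SEAP signal drop from agonist plus DMSO wells toward a known inhibitor control.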 To be noted: read-out: TLR9 IC50, HEK-Blue cells overexpressing human TLR9, ODN2006 5 nM.

Bounds are passed on as bounds.

In general, IC50 refers to the concentration at which inhibition is half-maximal.

Chain of human TLR8 (Q9NR97 27-1041): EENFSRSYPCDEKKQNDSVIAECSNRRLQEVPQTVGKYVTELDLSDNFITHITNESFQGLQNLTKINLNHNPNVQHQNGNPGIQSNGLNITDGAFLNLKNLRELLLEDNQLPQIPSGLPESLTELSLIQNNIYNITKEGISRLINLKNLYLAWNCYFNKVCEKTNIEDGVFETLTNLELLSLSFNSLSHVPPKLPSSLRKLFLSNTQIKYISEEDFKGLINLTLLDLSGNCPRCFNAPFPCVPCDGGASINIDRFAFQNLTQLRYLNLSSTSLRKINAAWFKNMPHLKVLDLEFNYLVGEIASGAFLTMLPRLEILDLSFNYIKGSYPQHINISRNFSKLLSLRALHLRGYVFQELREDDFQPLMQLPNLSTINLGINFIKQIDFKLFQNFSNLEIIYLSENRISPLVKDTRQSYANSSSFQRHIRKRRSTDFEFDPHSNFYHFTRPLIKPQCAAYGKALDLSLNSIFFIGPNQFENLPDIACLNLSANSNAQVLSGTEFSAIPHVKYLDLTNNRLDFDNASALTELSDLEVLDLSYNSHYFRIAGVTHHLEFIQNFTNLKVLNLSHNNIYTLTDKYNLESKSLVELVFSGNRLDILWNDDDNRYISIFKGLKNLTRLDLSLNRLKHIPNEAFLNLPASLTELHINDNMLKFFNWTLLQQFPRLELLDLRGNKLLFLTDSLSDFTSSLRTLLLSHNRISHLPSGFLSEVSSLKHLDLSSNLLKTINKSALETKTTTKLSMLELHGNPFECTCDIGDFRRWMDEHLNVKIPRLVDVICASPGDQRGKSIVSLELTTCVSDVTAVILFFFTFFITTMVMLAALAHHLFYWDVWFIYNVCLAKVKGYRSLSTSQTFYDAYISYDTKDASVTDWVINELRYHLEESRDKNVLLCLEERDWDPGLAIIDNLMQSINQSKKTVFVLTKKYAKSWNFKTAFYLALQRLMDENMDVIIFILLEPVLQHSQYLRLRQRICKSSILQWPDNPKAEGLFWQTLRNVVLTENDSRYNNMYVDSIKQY
Chain of human TLR9 (Q9NR96 26-1032): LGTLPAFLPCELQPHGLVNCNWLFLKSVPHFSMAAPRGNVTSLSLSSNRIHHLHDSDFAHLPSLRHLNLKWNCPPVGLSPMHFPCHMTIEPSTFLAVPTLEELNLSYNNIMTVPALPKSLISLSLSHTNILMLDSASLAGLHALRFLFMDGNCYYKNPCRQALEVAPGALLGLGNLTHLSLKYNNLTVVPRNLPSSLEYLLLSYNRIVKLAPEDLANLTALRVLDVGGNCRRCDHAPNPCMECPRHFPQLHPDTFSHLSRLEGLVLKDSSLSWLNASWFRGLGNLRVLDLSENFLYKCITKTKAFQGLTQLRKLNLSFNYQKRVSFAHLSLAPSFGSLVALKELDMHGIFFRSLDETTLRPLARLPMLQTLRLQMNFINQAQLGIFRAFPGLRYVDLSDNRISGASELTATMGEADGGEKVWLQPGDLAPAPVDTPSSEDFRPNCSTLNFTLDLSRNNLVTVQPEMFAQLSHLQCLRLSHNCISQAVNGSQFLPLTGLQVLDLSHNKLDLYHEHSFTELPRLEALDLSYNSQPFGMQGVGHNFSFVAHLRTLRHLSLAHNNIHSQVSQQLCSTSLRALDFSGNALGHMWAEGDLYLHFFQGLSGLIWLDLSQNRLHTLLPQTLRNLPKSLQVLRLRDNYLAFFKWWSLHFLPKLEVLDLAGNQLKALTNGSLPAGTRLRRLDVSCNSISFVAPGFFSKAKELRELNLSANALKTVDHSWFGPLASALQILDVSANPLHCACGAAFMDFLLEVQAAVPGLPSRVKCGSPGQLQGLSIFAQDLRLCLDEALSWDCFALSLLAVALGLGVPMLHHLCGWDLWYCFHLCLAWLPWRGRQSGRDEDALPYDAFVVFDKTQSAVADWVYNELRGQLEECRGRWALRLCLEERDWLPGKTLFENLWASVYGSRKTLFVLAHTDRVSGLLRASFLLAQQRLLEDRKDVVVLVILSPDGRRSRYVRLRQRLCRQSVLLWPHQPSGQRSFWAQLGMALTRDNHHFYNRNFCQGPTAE
Chain of human TLR7 (Q9NYK1 27-1049): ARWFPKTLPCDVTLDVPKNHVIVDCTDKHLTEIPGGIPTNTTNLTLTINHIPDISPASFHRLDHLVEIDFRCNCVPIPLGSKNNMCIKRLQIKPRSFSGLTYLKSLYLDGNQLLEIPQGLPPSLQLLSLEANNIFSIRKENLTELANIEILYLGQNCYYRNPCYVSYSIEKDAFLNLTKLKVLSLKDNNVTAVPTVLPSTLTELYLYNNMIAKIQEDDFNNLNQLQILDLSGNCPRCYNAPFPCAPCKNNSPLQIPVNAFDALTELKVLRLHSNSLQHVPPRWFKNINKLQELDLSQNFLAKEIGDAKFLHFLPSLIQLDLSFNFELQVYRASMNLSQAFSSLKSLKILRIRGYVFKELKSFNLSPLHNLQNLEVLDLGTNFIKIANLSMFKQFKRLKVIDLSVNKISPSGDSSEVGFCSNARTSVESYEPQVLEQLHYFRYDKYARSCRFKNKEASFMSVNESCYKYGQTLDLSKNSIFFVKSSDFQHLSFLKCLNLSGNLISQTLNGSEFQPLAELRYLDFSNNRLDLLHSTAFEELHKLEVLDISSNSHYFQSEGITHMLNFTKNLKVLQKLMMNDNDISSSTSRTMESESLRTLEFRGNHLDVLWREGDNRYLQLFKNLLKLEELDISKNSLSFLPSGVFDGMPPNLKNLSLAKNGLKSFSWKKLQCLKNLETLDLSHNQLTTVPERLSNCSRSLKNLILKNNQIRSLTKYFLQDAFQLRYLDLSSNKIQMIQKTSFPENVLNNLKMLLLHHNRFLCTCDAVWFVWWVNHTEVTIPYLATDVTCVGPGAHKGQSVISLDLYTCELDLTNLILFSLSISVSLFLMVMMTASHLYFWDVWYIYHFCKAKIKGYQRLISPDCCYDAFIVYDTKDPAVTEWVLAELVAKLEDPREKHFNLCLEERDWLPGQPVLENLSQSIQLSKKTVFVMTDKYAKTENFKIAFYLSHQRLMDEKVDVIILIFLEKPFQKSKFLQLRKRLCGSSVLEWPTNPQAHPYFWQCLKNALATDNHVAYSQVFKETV

Consider `Cc1cc(-c2[nH]c3ccc(C4CCN(CC(=O)N(C)C)CC4)cc3c2C(C)C)c(F)cn1` [Example 643, 2-(4-(2-(5-fluoro-2-methylpyridin-4-yl)-3-isopropyl-1H-indol-5-yl)piperidin-1-yl)-N,N-dimethylacetamide], for which the IC50 was 4.5 nM in assay [1], 4.7 nM in assay [2] and 4400 nM in assay [3].

Consider `Cc1cc(-c2[nH]c3ccc(C4CCN(CC(=O)N(C)C)CC4)cc3c2C(C)C)c(Cl)c(C)n1` [Example 644, 2-(4-(2-(3-chloro-2,6-dimethylpyridin-4-yl)-3-isopropyl-1H-indol-5-yl)piperidin-1-yl)-N,N-dimethylacetamide], for which the IC50 in assay [1] stood at 7.7 nM; in assay [2], 6 nM; in assay [3] it was 2300 nM.

On to `Cc1cc(-c2[nH]c3ccc(C4CCN(CC(=O)N(C)C)CC4)cc3c2C(C)C)c(F)c(C)n1` [Example 645, 2-(4-(2-(3-fluoro-2,6-dimethylpyridin-4-yl)-3-isopropyl-1H-indol-5-yl)piperidin-1-yl)-N,N-dimethylacetamide], for which the results for the IC50 in assay [1], in assay [2] and in assay [3] were 1.7 nM, 5.8 nM and 7430 nM, respectively.

Turning to `Cc1cc(-c2[nH]c3ccc(C4CCN(CC5COC5)CC4)cc3c2C(C)C)c(F)cn1` [Example 646, 2-(5-fluoro-2-methylpyridin-4-yl)-3-isopropyl-5-(1-(oxetan-3-ylmethyl)piperidin-4-yl)-1H-indole], the IC50 in assay [1] came out at 12 nM; in assay [2] it was 4.8 nM; in assay [3], 5850 nM.

For `Cc1cc(-c2[nH]c3ccc(C4CCN(CCO)CC4)cc3c2C(C)C)c(F)cn1` [Example 647, 2-(4-(2-(5-fluoro-2-methylpyridin-4-yl)-3-isopropyl-1H-indol-5-yl)piperidin-1-yl)ethan-1-ol], the values for the IC50 in assay [1], in assay [2] and in assay [3] were 3.9 nM, 2.3 nM and 2660 nM, respectively.

On to `Cc1nccc(-c2[nH]c3ccc(C4CCN(CC(=O)N(C)C)CC4)cc3c2C(C)C)c1F` [Example 648, 2-(4-(2-(3-fluoro-2-methylpyridin-4-yl)-3-isopropyl-1H-indol-5-yl)piperidin-1-yl)-N,N-dimethylacetamide], for which the IC50 in assay [1] turned out to be 3 nM; in assay [2] it was 3.7 nM; in assay [3], 2240 nM.

Consider `Cc1cc(-c2[nH]c3ccc(C4CCN(CC(F)F)CC4)cc3c2C(C)C)c(F)cn1` [Example 649, 5-(1-(2,2-difluoroethyl)piperidin-4-yl)-2-(5-fluoro-2-methylpyridin-4-yl)-3-isopropyl-1H-indole], for which the IC50 is 45.7 nM in assay [1], 16.2 nM in assay [2] and > 50000 nM in assay [3].

With `Cc1cc(-c2[nH]c3ccc(C4CCN(CC5COC5)CC4)cc3c2C(C)C)c(F)cn1` [Example 650, 2-(5-fluoro-2-methylpyridin-4-yl)-3-isopropyl-5-(1-(oxetan-3-ylmethyl)piperidin-4-yl)-1H-indole], the IC50 in assay [1] came to 4.7 nM; in assay [2], 1.8 nM; in assay [3], 3400 nM.

Take `Cc1cc(-c2[nH]c3ccc(C4CCN(CC(N)=O)CC4)cc3c2C(C)C)c(C)cn1` [Example 651, 2-(4-(2-(2,5-dimethylpyridin-4-yl)-3-isopropyl-1H-indol-5-yl)piperidin-1-yl)acetamide]: the IC50 in assay [1] worked out at 5.3 nM; in assay [2] it was 2.1 nM; in assay [3], 3740 nM.

In the case of `Cc1cc(-c2[nH]c3ccc(C4CCN(CC(N)=O)CC4)cc3c2C(C)C)c(F)cn1` [Example 652, 2-(4-(2-(5-fluoro-2-methylpyridin-4-yl)-3-isopropyl-1H-indol-5-yl)piperidin-1-yl)acetamide], the IC50 worked out at 1.5 nM in assay [1], 3 nM in assay [2] and 1290 nM in assay [3].

For the compound `CNC(=O)CN1CCC(c2ccc3[nH]c(-c4cc(C)ncc4C)c(C(C)C)c3c2)CC1` [Example 653, 2-(4-(2-(2,5-dimethylpyridin-4-yl)-3-isopropyl-1H-indol-5-yl)piperidin-1-yl)-N-methylacetamide], the IC50 in assay [1] was 13.9 nM; in assay [2], 4.4 nM; in assay [3] it was 4160 nM.

For the compound `CNC(=O)CN1CCC(c2ccc3[nH]c(-c4cc(C)ncc4F)c(C(C)C)c3c2)CC1` [Example 654, 2-(4-(2-(5-fluoro-2-methylpyridin-4-yl)-3-isopropyl-1H-indol-5-yl)piperidin-1-yl)-N-methylacetamide], the figures for the IC50 in assay [1], in assay [2] and in assay [3] were 2.8 nM, 3.2 nM and 3140 nM, respectively.

For `CNC(=O)CN1CCC(c2ccc3[nH]c(-c4cc(C)nc(C)c4F)c(C(C)C)c3c2)CC1` [Example 655, 2-(4-(2-(3-fluoro-2,6-dimethylpyridin-4-yl)-3-isopropyl-1H-indol-5-yl)piperidin-1-yl)-N-methylacetamide], the results for the half-maximal inhibitory concentration (IC50) in assay [1], in assay [2] and in assay [3] were 1.3 nM, 4.2 nM and 1750 nM, respectively.

As for `Cc1cc(-c2[nH]c3ccc(C4CCN(CCC#N)CC4)cc3c2C(C)C)c(F)cn1` [Example 656, 3-(4-(2-(5-fluoro-2-methylpyridin-4-yl)-3-isopropyl-1H-indol-5-yl)piperidin-1-yl)propanenitrile], the IC50 is 9.3 nM in assay [1], 1.9 nM in assay [2] and > 50000 nM in assay [3].

For the compound `Cc1cc(-c2[nH]c3ccc(C4CCN(C(=O)CCN5CCOCC5)CC4)cc3c2C(C)C)c(F)cn1` [Example 657, 1-(4-(2-(5-fluoro-2-methylpyridin-4-yl)-3-isopropyl-1H-indol-5-yl)piperidin-1-yl)-3-morpholinopropan-1-one], the IC50 in assay [1] amounted to 5.9 nM; in assay [2], 5.3 nM; in assay [3], 5680 nM.

Turning to `Cc1cc(-c2[nH]c3ccc(C4CCN(CC(F)(F)F)CC4)cc3c2C(C)C)ccn1` [Example 658, 3-isopropyl-2-(2-methylpyridin-4-yl)-5-(1-(2,2,2-trifluoroethyl)piperidin-4-yl)-1H-indole], the concentration for half-maximal inhibition (IC50) in assay [1] was determined as 434 nM; in assay [2], 645 nM; in assay [3], 7290 nM.

For the compound `CCOCCN1CCC(c2ccc3[nH]c(-c4ccnc(C)c4)c(C(C)C)c3c2)CC1` [Example 659, 5-(1-(2-ethoxyethyl)piperidin-4-yl)-3-isopropyl-2-(2-methylpyridin-4-yl)-1H-indole], the IC50 in assay [1] is 31.7 nM; in assay [2] it was 16.7 nM; in assay [3], 1450 nM.

Turning to `Cc1cc(-c2[nH]c3ccc(C4CCN(CC(F)F)CC4)cc3c2C(C)C)ccn1` [Example 660, 5-(1-(2,2-difluoroethyl)piperidin-4-yl)-3-isopropyl-2-(2-methylpyridin-4-yl)-1H-indole], the IC50 in assay [1] was 104 nM; in assay [2], 78.9 nM; in assay [3] it was > 50000 nM.

As for `Cc1cc(-c2[nH]c3ccc(C4CCN(CC(O)C(F)(F)F)CC4)cc3c2C(C)C)ccn1` (stereo not drawn) [Example 661, 1,1,1-trifluoro-3-(4-(3-isopropyl-2-(2-methylpyridin-4-yl)-1H-indol-5-yl)piperidin-1-yl)propan-2-ol], the IC50 in assay [1] was found to be 30.9 nM; in assay [2], 3.1 nM; in assay [3], 1940 nM.

As to `Cc1cc(-c2[nH]c3ccc(C4CCN(CC(O)c5ccccc5)CC4)cc3c2C(C)C)ccn1` (stereo not drawn) [Example 662, 2-(4-(3-isopropyl-2-(2-methylpyridin-4-yl)-1H-indol-5-yl)piperidin-1-yl)-1-phenylethan-1-ol], the IC50 came to 60.6 nM in assay [1], 29.6 nM in assay [2] and 1150 nM in assay [3].

On to `Cc1cc(-c2[nH]c3ccc(C4CCN(CCOc5ccccc5)CC4)cc3c2C(C)C)ccn1` [Example 663, 3-isopropyl-2-(2-methylpyridin-4-yl)-5-(1-(2-phenoxyethyl)piperidin-4-yl)-1H-indole], for which the figures for the IC50 in assay [1], in assay [2] and in assay [3] were 112 nM, 31.2 nM and 1100 nM, respectively.

`CCC(O)CN1CCC(c2ccc3[nH]c(-c4ccnc(C)c4)c(C(C)C)c3c2)CC1` (stereo not drawn) [Example 664, 1-(4-(3-isopropyl-2-(2-methylpyridin-4-yl)-1H-indol-5-yl)piperidin-1-yl)butan-2-ol]: the figures for the IC50 in assay [1], in assay [2] and in assay [3] were 10.2 nM, 4.5 nM and 1570 nM, respectively.

In the case of `Cc1cc(-c2[nH]c3ccc(C4CCN(CCC#N)CC4)cc3c2C(C)C)c(C)cn1` [Example 665, 3-(4-(2-(2,5-dimethylpyridin-4-yl)-3-isopropyl-1H-indol-5-yl)piperidin-1-yl)propanenitrile], the values for the IC50 in assay [1], in assay [2] and in assay [3] were 13.6 nM, 2.2 nM and 6210 nM, respectively.

Regarding `Cc1cc(-c2[nH]c3ccc(C4CCN(CC(C)C)CC4)cc3c2C(C)C)c(C)cn1` [Example 666, 2-(2,5-dimethylpyridin-4-yl)-5-(1-isobutylpiperidin-4-yl)-3-isopropyl-1H-indole], the values for the IC50 in assay [1], in assay [2] and in assay [3] were 5.8 nM, 2.6 nM and 948 nM, respectively.

For `Cc1cc(-c2[nH]c3ccc(C4CCN(CC5CC5)CC4)cc3c2C2CC2)cc(C)n1` [Example 667, 3-cyclopropyl-5-(1-(cyclopropylmethyl)piperidin-4-yl)-2-(2,6-dimethylpyridin-4-yl)-1H-indole], the figures for the 50% inhibitory concentration (IC50) in assay [1], in assay [2] and in assay [3] were 19 nM, 32.1 nM and 86 nM, respectively.

Take `Cc1cc(-c2[nH]c3ccc(C4CCN(CC(C)(C)O)CC4)cc3c2C2CC2)cc(C)n1` [Example 668, 1-(4-(3-cyclopropyl-2-(2,6-dimethylpyridin-4-yl)-1H-indol-5-yl)piperidin-1-yl)-2-methylpropan-2-ol]: the IC50 in assay [1] was found to be 14.3 nM; in assay [2], 7.6 nM; in assay [3], 149 nM.

`Cc1cc(-c2[nH]c3ccc(C4CCN(CCCN(C)C)CC4)cc3c2C(C)C)ccn1` [Example 669, 3-(4-(3-isopropyl-2-(2-methylpyridin-4-yl)-1H-indol-5-yl)piperidin-1-yl)-N,N-dimethylpropan-1-amine]: the IC50 in assay [1] worked out at 2.6 nM; in assay [2], 1.9 nM; in assay [3], 221 nM.
